Patent US20040014738A1 (priority 2000, published 2004)

Legend:
Pseudomonas aeruginosa = test: Photodynamic inactivation of Pseudomonas aeruginosa in stem cell-containing solution; type: cell-based; settings: 25 μM sensitizer, light >600 nm, 35 mW/cm^2, about 10^5 bacteria/ml in stem cell solution (FIG. 1)
Experimental: Photodynamic Treatment of Stem Cell-Containing Solution Contaminated with Pseudomonas
(§1) The following parameters were measured:
Inactivation of P. aeruginosa; and […]

[1] = test system: stem cells from umbilical cord blood
Experimental: Stem cells were isolated from fresh umbilical cord blood using hydroxy ethylstarch (HES) sedimentation (Perutelli P. et al, Vox Sang. 76(4) pp 237-40 (1999); Adorno G. et al, Clin. Lab. Haematol. 20(6) pp 341-3 (1998)). The resulting solution contained 20*10^6 cells/ml, as determined using an automatic cell counter (Sysmex K1000, TOA Medical Electronics, Kobe, Japan).
Stock solutions of Pseudomonas aeruginosa were added to the stem cell solution such that the volume of the spike was <10% of the total volume of the solution, and the number of bacteria was about 10^5/ml. A sensitizer, monophenyl-tri(N-methyl-4-pyridyl)porphyrin chloride (TriP(4), Mid-Century, Posen, Ill. USA), was added to a final concentration of 25 μM. The suspension were thoroughly mixed and divided into 3-ml aliquots in polystyrene culture dishes with a diameter of 6 cm (Greiner, Alphen a/d Rijn, the Netherlands), and agitated at room temperature on a horizontal reciprocal shaker (60 cycles/min, GFL, Burgwedel, Germany) for 5 min. in the dark. […] The irradiance at the cell layer was 35 mW/cm^2, as measured with an IL1400A photometer equipped with a SEL033 detector (International Light, Newburyport, Mass. USA). The following parameters were measured:
Influence of the treatment on stem cell differentiation (as measured by cfu-e, bfu-e, cfu-m, cfu-gm, and cfu-gem). […]

[2] = test system: CD34-positive cells (stem cells); test: Viability of the stem cells after photodynamic treatment; type: cell-based; settings: 25 μM sensitizer, illumination 1 hour, vs control (no illumination, no sensitizer) (FIG. 2)
Experimental: as §1
Viability of the stem cells.

C[n+]1ccc(-c2c3nc(c(-c4cc[n+](C)cc4)c4ccc([nH]4)c(-c4cc[n+](C)cc4)c4nc(c(-c5ccccc5)c5ccc2[nH]5)C=C4)C=C3)cc1.[Cl-].[Cl-].[Cl-] [TriP(4), monophenyl-tri(N-methyl-4-pyridyl)porphyrin chloride]
Inactivation of P. aeruginosa (Pseudomonas aeruginosa): effectively killed
CFU-Mk, PDT (60′) [1]: 38
viability of CD34-positive cells (stem cells) [2]: remains within the error margin for the control experiment
